Experimental data from US6489364B2, “Antiviral protease inhibitors” (priority 1997, dated 2002).
≈ marks a conversion by molar mass, not a printed value. Read-outs that look alike come from different tables or passages of the source.

Experiments:
purified HIV proteinase = target: T1, purified HIV proteinase (Human immunodeficiency virus type 1 group M subtype B, UniProt P04585); experiment: biochemical
T1 construct: purified HIV proteinase
Experimental: Representative compounds were tested for HIV protease activity in a spectrophotometric enzyme assay using the chromogenic substrate His-Lys-Ala-Arg-Val-Leu-p-nitro-Phe-Glu-Ala-Nle-Ser-amide and purified HIV proteinase. The rate of cleavage is followed by continuously registering the change in absorbance at 300 nm. […]

HIV-1 = HIV-1 infected MT4 cell culture, XTT assay; format: cell-based
Experimental: Compounds are also tested for HIV protease activity in cell culture. MT4 cells grown in RPMI 1640 cell culture medium including 10% fetal calf serum are infected with 10 TCID HIV-1 per 2×10^5 cells and cultured for 6 days. XTT is added and the amount of XTT formazan produced in the following 6 hours represents the number of surviving cells. Results are expressed as the ED50, that is the concentration in μg/ml of the compound of the invention which suppresses viral replication by 50%.

[1] = values in parentheses, affinity constant, read-out: (Ki μM)
[2] = Human immunodeficiency virus 1, 144 h, second part of Table 1, head EC50, MT4 cells, HIV-1, 6 days, XTT, read-out: EC50
[3] = Human immunodeficiency virus 1, MT4, 144 h

Row | SMILES | Ki (purified HIV proteinase; [1]) [µM] | EC50 (HIV-1; [2]) [µg/mL] | Ki (purified HIV proteinase) [µM] | other results
1 | CCC(C)[C@H](NC(=O)[C@H](OCc1ccccc1)[C@H](O)[C@@H](O)[C@@H](OCc1ccccc1)C(=O)N[C@H](C(=O)NC)C(C)CC)C(=O)NC (stereo partly drawn) [Example 4, N1,N6-di[(1S)-2-methyl-1-(methylcarbamoyl)butyl]-(2R,3R,4R,5R)-2,5-di(benzyloxy)-3,4-dihydroxyhexanediamide] | 0.009 | – | – | –
2 | O=C(N[C@H]1c2ccccc2C[C@H]1O)[C@H](OCc1ccc(F)cc1F)[C@H](O)[C@@H](O)[C@@H](OCc1ccc(F)cc1F)C(=O)N[C@H]1c2ccccc2C[C@H]1O [Example 21, N1,N6-di[(1S,2R)-2-hydroxy-2,3-dihydro-1H-1-indenyl]-(2R,3R,4R,5R)-2,5-di(2,4-difluorobenzyloxy)-3,4-dihydroxyhexanediamide] | 0.00038 | 0.1 (≈ 0.138 µM) | – | –
3 | O=C(NCc1c(F)cccc1Cl)[C@H](OCc1ccccc1F)[C@H](O)[C@@H](O)[C@@H](OCc1ccccc1F)C(=O)N[C@H]1c2ccccc2C[C@H]1O [Example 27, N1-[(1S,2R)-2-hydroxy-2,3-dihydro-1H-1-indenyl]-N6-(2-chloro-6-fluorobenzyl)-(2R,3R,4R,5R,)-2,5-di(2-fluorobenzyloxy)-3,4-dihydroxyhexanediamide] | 0.0014 | 0.8 (≈ 1.14 µM) | – | –
4 | O=C(N[C@H]1c2ccccc2C[C@H]1O)[C@@H](C[C@@H](O)[C@@H](OCc1ccccc1)C(=O)N[C@H]1c2ccccc2C[C@H]1O)OCc1ccccc1 [Example 26, N1,N6-di[(1S,2R)-2-hydroxy-2,3-dihydro-1H-1-indenyl]-(2R,3R,5R)-2,5-di(benzyloxy)-3-hydroxyhexanediamide] | 0.00097 | 0.8 (≈ 1.26 µM) | – | –
5 | CNC(=O)C(NC(=O)C(OCc1ccccc1)C(O)C(O)C(OCc1ccccc1)C(=O)NC1c2ccccc2CC1O)C(C)C [Example 11, N1-[(1S,2R)-2-hydroxy-2,3-dihydro-1H-1-indenyl]-N6-[(1S)-2-methyl-1-(methylcarbamoyl)propyl]-(2R,3R,4R,5R,)-2,5-di(benzyloxy)-3,4-dihydroxyhexanediamide] | 0.0012 | 0.2 (≈ 0.316 µM) | – | –
6 | CNC(=O)[C@@H](NC(=O)[C@H](OCc1ccc(-c2cccc([N+](=O)[O-])c2)cc1)[C@H](O)[C@@H](O)[C@@H](OCc1ccc(-c2cccc([N+](=O)[O-])c2)cc1)C(=O)N[C@H](C(=O)NC)C(C)C)C(C)C [Example 24, N1,N6-di[(1S)-2-methyl-1-(methylcarbamoyl)propyl]-(2R,3R,4R,5R)-2,5-di[(4-(3-nitrophenyl)benzyl)oxy]-3,4-dihydroxyhexanediamide] | – | – | 0.0014 | EC50 (HIV-1; [3]): 0.4 µg/mL (≈ 0.467 µM)
7 | CNC(=O)C(NC(=O)C(OCc1ccc(-c2ccccc2)cc1)C(O)C(O)C(OCc1ccc(-c2ccccc2)cc1)C(=O)NC(C(=O)NC)C(C)C)C(C)C [Example 14, N1,N6-di[(1S)-2-methyl-1-(methylcarbamoylpropyl]-(2R,3R,4R,5R)-2,5-di[(4-phenylbenzyl)oxy]-3,4-dihydroxyhexanediamide] | – | – | 0.00067 | EC50 (HIV-1; [3]): 0.04 µg/mL (≈ 0.0522 µM)
8 | O=C(N[C@H]1c2ccccc2C[C@H]1O)[C@H](OCc1cccc(F)c1)[C@H](O)[C@@H](O)[C@@H](OCc1cccc(F)c1)C(=O)N[C@H]1c2ccccc2C[C@H]1O [Example 18, N1,N6-di[(1 S,2R)-2-hydroxy-2,3-dihydro-1H-1-indenyl]-(2R,3R,4R,5R)-2,5-di(3-fluorobenzyloxy)-3,4-dihydroxyhexanediamide] | 0.05 | 0.5 (≈ 0.726 µM) | – | –
9 | O=C(NC1c2ccccc2CC1O)C(OCc1ccccc1)C(O)C(O)C(OCc1ccccc1)C(=O)NC1c2ccccc2CC1O [Example 10, N1,N6-di[(1S,2R)-2-hydroxy-2,3-dihydro-1H-1-indenyl]-(2R,3R,4R,5R)-2.5-di(benzyloxy)-3,4-dihydroxyhexanediamide] | – | – | 0.0016 | –
10 | CNC(=O)[C@@H](NC(=O)[C@H](OCc1ccc(-c2cccs2)cc1)[C@H](O)[C@@H](O)[C@@H](OCc1ccc(-c2cccs2)cc1)C(=O)N[C@H](C(=O)NC)C(C)C)C(C)C [Example 25, N1,N6-di[(1S)-2-methyl-1-(methylcarbamoyl)propyl]-(2R,3R,4R,5R)-2,5-di[4-(2-thienyl)benzyloxy]-3,4-dihydroxyhexanediamide] | – | – | 0.00017 | EC50 (HIV-1; [3]): 0.02 µg/mL (≈ 0.0257 µM)
11 | CNC(=O)C(NC(=O)C(OCc1cccc(F)c1)C(O)C(O)C(OCc1cccc(F)c1)C(=O)NC(C(=O)NC)C(C)C)C(C)C (stereo not drawn) [Example 17] | 0.002 | 0.8 (≈ 1.23 µM) | – | –
12 | CNC(=O)[C@@H](NC(=O)[C@H](OCc1ccc(C2=C(O)C(=O)CCC2)cc1)[C@H](O)[C@@H](O)[C@@H](OCc1ccc(C2=C(O)C(=O)CCC2)cc1)C(=O)N[C@H](C(=O)NC)C(C)C)C(C)C [Example 33] | – | – | 0.0005 | EC50 (HIV-1; [3]): 0.2 µg/mL (≈ 0.24 µM)
13 | CNC(=O)C(NC(=O)C(OCc1ccc(-c2ccccn2)cc1)C(O)C(O)C(OCc1ccc(-c2ccccn2)cc1)C(=O)NC(C(=O)NC)C(C)C)C(C)C [Example 22, N1,N6-di[(1S)-2-methyl-1-(methylcarbamoyl)propyl]-(2R,3R,4R,5R)-2.5-di[4-(2-pyridyl)benzyloxy]-3,4-dihydroxyhexanediamide] | – | – | 0.00061 | EC50 (HIV-1; [3]): 0.4 µg/mL (≈ 0.52 µM)
14 | CC(C)[C@H](NC(=O)[C@H](OCc1ccccc1)[C@H](O)[C@@H](O)[C@@H](OCc1ccccc1)C(=O)N[C@H]1c2ccccc2C[C@H]1O)C(=O)NCc1ccccn1 [Example 28, N1-[(1S,2R)-2-hydroxy-2,3-dihydro-1H-1-indenyl]-N6-[(1S)-2-methyl-1-([2-pyridylmethyl]carbamoyl)propyl]-(2R,3R,4R,5R,)-2,5-di(benzyloxy)-3,4-dihydroxyhexanediamide] | – | – | – | EC50 (HIV-1; second part of Table 1, head EC50, MT4 cells, HIV-1, 6 days, XTT): 0.2 µg/mL (≈ 0.281 µM)
15 | CC(C)C(NC(=O)C(OCc1ccccc1)C(O)C(O)C(OCc1ccccc1)C(=O)NC(C(=O)NC1CC1)C(C)C)C(=O)NC1CC1 [Example 8, N1,N6-di[(1S)-2-methyl-1-(cyclopropylcarbamoyl)propyl]-(2R,3 R,4R,5R)-25-di(benzyloxy)-3,4-dihydroxyhexanediamide] | 0.0034 | – | – | –
16 | CNC(=O)C(NC(=O)C(CC(O)C(OCc1ccccc1)C(=O)NC(C(=O)NC)C(C)C)OCc1ccccc1)C(C)C [Example 3, N1,N6-di[(1S)-2-methyl-1-(methylcarbamoyl)propyl]-(2R,3R,5R)-2,5-di(benzaloxy)-3-hydroxyhexanediamide] | – | – | – | IC50 (purified HIV proteinase; values printed without parentheses, concentration inhibiting enzyme performance by 50%): 4 nM
17 | CNC(=O)[C@@H](NC(=O)[C@H](OCc1ccccc1)[C@H](O)[C@@H](O)[C@@H](OCc1ccccc1)C(=O)N[C@H](C(=O)NC)C(C)C)C(C)C [Example 1, N1,N6-di[(1S)-2-methyl-1-(methylcarbamoyl)propyl]-(2R,3R,4R,5R)-2,5-di(benzyloxy)-3,4-dihydroxyhexanediamide] | – | – | – | IC50 (purified HIV proteinase): 15 nM
18 | CNC(=O)[C@@H](NC(=O)[C@H](OCc1ccccc1C)[C@H](O)[C@@H](O)[C@@H](OCc1ccccc1C)C(=O)N[C@H](C(=O)NC)C(C)C)C(C)C [Example 9, N1,N6-di[(1S)-2-methyl-1-(methylcarbamoyl)propyl]-(2R,3R,4R,5R)-2,5-di[(2-methylbenzyl)oxy]-3,4-dihydroxyhexanediamide] | 0.0035 | – | – | –
19 | CNC(=O)[C@@H](NC(=O)[C@H](OCc1ccc(F)cc1)[C@H](O)[C@@H](O)[C@@H](OCc1ccc(F)cc1)C(=O)N[C@H](C(=O)NC)C(C)C)C(C)C [Example 7, N1,N6-di[(1S)-2-methyl-1-(methylcarbamoyl)propyl]-(2R,3R,4R,5R)-2,5-di[(4-fluorobenzyl)oxy]-3,4-dihydroxyhexanediamide] | 0.0023 | – | – | –
